The target of this experiment is T1, human EGF-R (Homo sapiens, UniProt P00533).
T1 construct: expressed in transfected cells
T1 sequence (P00533 25-1210): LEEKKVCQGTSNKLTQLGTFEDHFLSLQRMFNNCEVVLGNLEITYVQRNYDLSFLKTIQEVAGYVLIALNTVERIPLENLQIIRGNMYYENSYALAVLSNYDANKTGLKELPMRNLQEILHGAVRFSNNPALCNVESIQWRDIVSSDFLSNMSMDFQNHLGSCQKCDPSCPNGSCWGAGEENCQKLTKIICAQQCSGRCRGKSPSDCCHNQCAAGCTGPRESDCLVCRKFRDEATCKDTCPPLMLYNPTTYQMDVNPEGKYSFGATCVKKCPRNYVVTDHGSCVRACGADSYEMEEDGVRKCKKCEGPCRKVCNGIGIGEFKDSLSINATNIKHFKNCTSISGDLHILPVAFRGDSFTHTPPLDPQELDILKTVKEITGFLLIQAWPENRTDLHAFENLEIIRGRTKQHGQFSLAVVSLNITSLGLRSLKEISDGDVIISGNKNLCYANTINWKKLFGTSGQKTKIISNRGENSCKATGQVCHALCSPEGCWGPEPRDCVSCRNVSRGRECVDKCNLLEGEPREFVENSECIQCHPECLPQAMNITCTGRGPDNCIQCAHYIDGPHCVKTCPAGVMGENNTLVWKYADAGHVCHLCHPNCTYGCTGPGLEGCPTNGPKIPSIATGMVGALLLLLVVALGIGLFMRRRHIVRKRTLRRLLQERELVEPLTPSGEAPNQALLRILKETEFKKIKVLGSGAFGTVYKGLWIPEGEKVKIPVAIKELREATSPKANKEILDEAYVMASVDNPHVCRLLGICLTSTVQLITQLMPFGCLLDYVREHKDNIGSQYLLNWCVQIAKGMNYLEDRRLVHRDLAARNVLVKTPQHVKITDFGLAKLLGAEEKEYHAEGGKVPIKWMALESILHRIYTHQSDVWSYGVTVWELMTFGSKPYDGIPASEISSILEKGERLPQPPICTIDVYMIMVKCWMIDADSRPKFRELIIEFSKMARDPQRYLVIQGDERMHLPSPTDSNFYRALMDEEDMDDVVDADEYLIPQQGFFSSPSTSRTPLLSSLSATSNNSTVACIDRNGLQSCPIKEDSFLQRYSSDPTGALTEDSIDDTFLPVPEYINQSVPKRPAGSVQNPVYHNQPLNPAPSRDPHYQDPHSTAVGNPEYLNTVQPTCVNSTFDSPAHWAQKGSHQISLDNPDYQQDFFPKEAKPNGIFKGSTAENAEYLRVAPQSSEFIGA
Nature of the experiment: Inhibition of the EGFR-dependent proliferation of a murine haematopoietic cell line expressing human EGF-R, stimulated with EGF. It is filed as cell-based. The note with it: 20 ng/ml human EGF, 48 hours at 37° C., Cell Titer 96 AQueous assay. The procedure:
A murine haematopoietic cell line is genetically modified so as to express functional human EGF-R. The proliferation of this cell line can therefore be stimulated by EGF.
The test is carried out as follows:
The cells are cultivated in RPMI/1640 medium. The proliferation is stimulated with 20 ng/ml of human EGF (Promega). To investigate the inhibitory activity of the compounds according to the invention these compounds are dissolved in 100% dimethylsulphoxide (DMSO) and added to the cultures in various dilutions, the maximum DMSO concentration being 1%. The cultures are incubated for 48 hours at 37° C.
In order to determine the inhibitory activity of the compounds according to the invention the relative cell number is measured in O.D. Units using the Cell Titer 96™ AQueous Non-Radioactive Cell Proliferation Assay (Promega). The relative cell number is calculated as a percentage of the control and the concentration of active substance which inhibits the proliferation of the cells by 50% (IC50) is derived therefrom.
For `COc1cc2ncnc(Nc3cccc(Cl)c3F)c2cc1O[C@H]1CC[C@H]([C@@H]2NCCN(C)C2=O)CC1` [1(2), trans-(S)-3-{4-[4-(3-chloro-2-fluoro-phenylamino)-7-methoxy-quinazolin-6-yloxy]-cyclohexyl}-1-methyl-piperazin-2-one], the IC50 (usually the concentration that inhibits the measured activity by half) is 1 nM.
Take `COc1cc2ncnc(Nc3cccc(Cl)c3F)c2cc1O[C@H]1CC[C@@H]([C@H]2NCCNC2=O)CC1` [1(4), cis-(R)-3-{4-[4-(3-chloro-2-fluoro-phenylamino)-7-methoxy-quinazolin-6-yloxy]-cyclohexyl}-piperazin-2-one]: half-maximal inhibition (IC50) required 12.5 nM.
As for `COc1cc2ncnc(Nc3cccc(Cl)c3F)c2cc1O[C@H]1CC[C@H]([C@H]2NCCNC2=O)CC1` [1(5), trans-(R)-3-{4-[4-(3-chloro-2-fluoro-phenylamino)-7-methoxy-quinazolin-6-yloxy]-cyclohexyl}-piperazin-2-one], the IC50 turned out to be 1.6 nM.
To `COc1cc2ncnc(Nc3cccc(Cl)c3F)c2cc1OC1CCC([C@H]2C(=O)NCCN2C)CC1` (mixture of isomers) [Example 1, cis/trans-(S)-3-{-4-[4-(3-chloro-2-fluoro-phenylamino)-7-methoxy-quinazolin-6-yloxy]-cyclohexyl}-4-methyl-piperazin-2-one] belongs 1 nM.
For `COc1cc2ncnc(Nc3cccc(Cl)c3F)c2cc1O[C@H]1CC[C@@H]([C@@H]2NCCNC2=O)CC1` [1(1a), cis-(S)-3-{4-[4-(3-chloro-2-fluoro-phenylamino)-7-methoxy-quinazolin-6-yloxy]-cyclohexyl}-piperazin-2-one], the IC50 worked out at 10 nM.
Regarding `COc1cc2ncnc(Nc3cccc(Cl)c3F)c2cc1OC1CCC([C@H]2C(=O)N(C)CCN2C)CC1` (mixture of isomers) [1(3), cis/trans-(S)-3-{4-[4-(3-chloro-2-fluoro-phenylamino)-7-methoxy-quinazolin-6-yloxy]-cyclohexyl}-1,4-dimethyl-piperazin-2-one], the IC50 amounted to 1 nM.
`COc1cc2ncnc(Nc3cccc(Cl)c3F)c2cc1O[C@H]1CC[C@H]([C@@H]2NCCNC2=O)CC1` [1(1b), trans-(S)-3-{4-[4-(3-chloro-2-fluoro-phenylamino)-7-methoxy-quinazolin-6-yloxy]-cyclohexyl}-piperazin-2-one]: inhibition was half-maximal at 1.4 nM (IC50).

(Values after US8648191B2, “Cyclohexyloxy substituted heterocycles, pharmaceutical compositions containing these compounds and processes for preparing them” (Boehringer Ingelheim International GmbH, priority 2008, dated 2014).)
